One assay deals with HLA-A*0203 (Homo sapiens, UniProt P04439, A173T/D140Y/D185E/D98H/E277Q/G131W/G231S/I119V/I121R/I166T/I218V/L180W/L300P/L318F/N151K/N90K/P208A/P217A/Q86G/Q94H/R138H/R169H/T345S). In words: purified HLA class I binding assay, A*0203.
The next assay has as its target T1, HLA-DRB1*0301 (DR3) (Homo sapiens, UniProt P01903+P01911, A100K/A102G/A103R/A169T/F55Y/I96L/K41T/L162R/M171V/P40S/Q125H/Q178H/Q39Y/R42S/S66N/T106N/T262R/W38E/Y61H).
T1 construct: endogenous in cells; host or cells: MAT
In words: purified HLA class II binding assay, DRB1*0301 (DR3), pH 4.5. Particulars: for DR3 binding information: Table XXd, HIV DR 3b motif peptides.

A further assay deals with HLA-A*0202 (Homo sapiens, UniProt P04439, D140Y/D185E/D98H/E176V/E277Q/G131W/G231S/I119L/I121R/I166T/I218V/L180W/L300P/L318F/N151K/N90K/P208A/P217A/Q67R/Q86G/Q94H/R138H/R169H/T345S). As to the kind of experiment: purified HLA class I binding assay, A*0202.
In the next assay the target is HLA-A*0206 (Homo sapiens, UniProt P04439, D140Y/D185E/D98H/E176V/E277Q/F33Y/G131W/G231S/I119V/I121R/I166T/I218V/L300P/L318F/N151K/N90K/P208A/P217A/Q86G/Q94H/R138H/R169H/T345S). In words: purified HLA class I binding assay, A*0206.
A further assay concerns the target HLA-A*6802 (Homo sapiens, UniProt P04439, A269V/D140Y/D185E/E176V/E277Q/E87N/F33Y/G231S/I121R/I166T/I218V/L180W/L300P/L318F/N151K/P208A/P217A/Q86R/R138H/R169H/S129P/T345S/V36M). As to the kind of experiment: purified HLA class I binding assay, A*6802.
Another assay concerns the target HLA-A*0201 (Homo sapiens, UniProt P04439, D140Y/D185E/D98H/E176V/E277Q/G131W/G231S/I119V/I121R/I166T/I218V/L300P/L318F/N151K/N90K/P208A/P217A/Q86G/Q94H/R138H/R169H/T345S). In words: purified HLA class I binding assay, A*0201. The following applies: for A*0201 (binding information): Table VIII, unit not given.
A further assay has as its target T2, HLA-DRB1*0701 (DR7) (Homo sapiens, UniProt P01903+P01911, A100R/A102G/A103Q/D57E/D86V/E43K/F76Y/K127E/L162R/M171V/P40G/Q125H/Q99D/R33Q/R42Y/R54Q/S133A/S66F/T210M/V115G/Y107V/Y59L/Y89S).
T2 construct: endogenous in cells; host or cells: Pitout
In words: biochemical. Format: binding.

A further assay has as its target T3, HLA-DRB1*0802 (DR8w2) (Homo sapiens, UniProt P01903+P01911, A100R/A103L/A169T/F76Y/H45Y/I96F/K41T/L162R/M171V/P40S/Q125H/Q178H/Q39Y/Q99D/R218S/R42G/S66Y/V115G/W38E).
T3 construct: endogenous in cells
In words: biochemical. Format: binding.

The target in another assay is HLA-DRB1*1302 (DR6w19) (Homo sapiens, UniProt P01903+P01911, A100E/A169T/K41T/L162R/M171V/P40S/Q125H/Q178H/Q39Y/Q99D/R42S/S66N/T262R/V115G/W38E/Y61H). In words: purified HLA class II binding assay, DRB1*1302 (DR6w19). The following applies: for DR6w19 binding information: Table XXb, HIV DR 3a motif peptides.
The target in the next assay is T4, HLA-A*0301 (Homo sapiens, UniProt P04439).
T4 construct: endogenous in cells; host or cells: GM3107
In words: purified HLA class I binding assay, A*0301. Particulars: HIV POL-derived A03 motif peptides; binding value for purified HLA-A*0301, unit not given.

No end group written: not given here.

T1 sequence (P01903 26-254 partner, other chains not shown): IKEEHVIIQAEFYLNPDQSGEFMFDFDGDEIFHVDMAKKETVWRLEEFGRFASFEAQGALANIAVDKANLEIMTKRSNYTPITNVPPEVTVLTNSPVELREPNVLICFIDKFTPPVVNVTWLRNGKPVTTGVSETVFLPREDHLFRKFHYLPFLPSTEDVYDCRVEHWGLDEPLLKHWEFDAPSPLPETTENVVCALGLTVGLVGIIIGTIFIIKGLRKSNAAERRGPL

For orientation: IC50 means the point on the concentration scale where inhibition reaches its midpoint. At HLA-A*0203, `CSCC[C@H](NC(=O)[C@H](C)NC(=O)[C@@H](N)CCCNC(=N)N)C(=O)N[C@@H](C)C(=O)N[C@@H](CO)C(=O)N[C@@H](CC(=O)O)C(=O)N[C@@H](Cc1ccccc1)C(=O)N[C@@H](CC(N)=O)C(=O)N[C@@H](CC(C)C)C(=O)O` [1260.10] yielded an IC50 of 25000 nM.

Take `CC[C@H](C)[C@H](NC(=O)[C@@H](NC(=O)CNC(=O)[C@H](CC(C)C)NC(=O)[C@H](C)NC(=O)[C@H](Cc1ccc(O)cc1)NC(=O)[C@H](CCC(N)=O)NC(=O)[C@H](CO)NC(=O)[C@H](CC(=O)O)NC(=O)[C@@H](NC(=O)[C@@H](NC(=O)[C@@H](NC(=O)[C@H](CC(N)=O)NC(=O)[C@@H](NC(=O)[C@@H](N)CCC(=O)O)C(C)C)[C@@H](C)CC)C(C)C)[C@@H](C)O)[C@@H](C)CC)C(=O)O` [Peptide 35.0127]: the IC50 on HLA-DRB1*0301 (DR3) turned out to be 732 nM.

`CSCC[C@H](NC(=O)[C@H](C)NC(=O)[C@H](CCC(=O)O)NC(=O)[C@H](C)NC(=O)[C@H](CC(C)C)NC(=O)[C@@H](N)C(C)C)C(=O)N[C@@H](CO)C(=O)N[C@@H](CCC(N)=O)C(=O)N[C@H](C(=O)O)C(C)C` [Peptide 1069.32]: the IC50 at HLA-A*0202 amounted to 82.7 nM; on HLA-A*0203, 15.2 nM.

For the compound `CC(C)C[C@H](NC(=O)[C@H](CCCCN)NC(=O)[C@H](Cc1ccccc1)NC(=O)[C@H](CS)NC(=O)[C@H](Cc1c[nH]c2ccccc12)NC(=O)CNC(=O)[C@H](Cc1ccccc1)NC(=O)[C@@H](NC(=O)[C@@H](N)CC(C)C)[C@@H](C)O)C(=O)O` [Peptide 1261.04], the results for the IC50 at HLA-A*0203, at HLA-A*0206 and at HLA-A*6802 were 4550 nM, 206 nM and 5.6 nM, respectively.

With `CC[C@H](C)[C@H](NC(=O)CNC(=O)[C@H](C)NC(=O)[C@H](Cc1c[nH]c2ccccc12)NC(=O)[C@H](Cc1c[nH]c2ccccc12)NC(=O)[C@H](CS)NC(=O)[C@H](C)NC(=O)[C@H](C)NC(=O)[C@@H](N)CCCCN)C(=O)O` [Peptide 1261.07], the half-maximal inhibitory concentration (IC50) at HLA-A*0203 was 83.3 nM; at HLA-A*0206, 161 nM.

Take `CC[C@H](C)[C@H](NC(=O)[C@H](CC(N)=O)NC(=O)[C@@H](NC(=O)[C@@H]1CCCN1C(=O)[C@@H](NC(=O)[C@@H]1CCCN1C(=O)CNC(=O)[C@@H](NC(=O)[C@@H](N)CC(C)C)C(C)C)[C@@H](C)O)C(C)C)C(=O)O` [Peptide 1261.09]: the IC50 on HLA-A*0203 was found to be 19.2 nM; on HLA-A*0206 it was 2850 nM; at HLA-A*6802, 67.8 nM.

Take `CC[C@H](C)[C@H](NC(=O)[C@H](Cc1ccccc1)NC(=O)[C@H](CC(C)C)NC(=O)[C@H](CC(C)C)NC(=O)[C@H](CCC(N)=O)NC(=O)[C@H](CCC(N)=O)NC(=O)[C@H](CC(C)C)NC(=O)[C@@H](NC(=O)[C@@H](N)CCCNC(=N)N)[C@@H](C)CC)C(=O)O` [Peptide 1261.12]: the results for the half-maximal inhibitory concentration (IC50) at HLA-A*0201, on HLA-A*0206 and on HLA-A*6802 were 19.2 nM, 37 nM and 1820 nM, respectively.

In the case of `CC[C@H](C)[C@H](NC(=O)[C@H](Cc1ccccc1)NC(=O)CNC(=O)CNC(=O)[C@@H](NC(=O)CNC(=O)CNC(=O)[C@@H](NC(=O)[C@H](CCSC)NC(=O)[C@@H](N)CCCCN)[C@@H](C)CC)[C@@H](C)CC)C(=O)O` [Peptide 1261.17], the concentration for half-maximal inhibition (IC50) at HLA-A*0202 amounted to 54.4 nM; at HLA-A*0203, 4.8 nM; on HLA-A*0206 it was 771 nM.

In turn, CTEMEKBGKISKIGP had a DR3 binding information with HLA-DRB1*0301 (DR3) of 0.0110.

As to DGAANRETKLCKAGY, in the assay with HLA-DRB1*0301 (DR3), the DR3 binding information is recorded as −0.0017.

With FIHNFKRKG, in the assay with HLA-DRB1*0701 (DR7), the DR7 binding information came out at 0.0048.

With FLQSRPEPT [25.0037], the IC50 at HLA-A*0203 was found to be 32.3 nM.

Consider FSPEVIPMF, for which the DR7 binding information in the assay with HLA-DRB1*0701 (DR7) turned out to be 0.0023.

FYVDGAANR yielded a DR7 binding information in the assay with HLA-DRB1*0701 (DR7) of −0.0014. The DR8w2 binding information in the assay with HLA-DRB1*0802 (DR8w2) is given as 0.0035. Also, the DR6w19 binding information with HLA-DRB1*1302 (DR6w19) is recorded as −0.0002.

Consider GAVVIQDNSDLKVVP [Peptide 35.0133], for which the IC50 on HLA-DRB1*0301 (DR3) was found to be 1000 nM.

As for GIRYQYNYL, the “A*0201 (binding information)” value with HLA-A*0201 (HIV A02 super motif peptides) is 0.0001.

On to IDPENPYNT, for which the DR7 binding information with HLA-DRB1*0701 (DR7) was −0.0005.

On to IILALQDSGL, for which, in the assay with HLA-A*0201 (HIV A02 super motif peptides), the “A*0201 (binding information)” value turned out to be 0.0005.

For the compound IILKTAVQMA, the “A*0201 (binding information)” value with HLA-A*0201 (HIV A02 super motif peptides) worked out at 0.0033. In addition, the “A0301 (HIV A03 Motif Peptides with Binding Information)” value in the assay with HLA-A*0301 stood at 0.0003.

As for IILKTAVQMAV, the “A*0201 (binding information)” value with HLA-A*0201 (HIV A02 supermotif peptides) was determined as 0.0005.

For the compound IKQEFGIPY, the DR7 binding information with HLA-DRB1*0701 (DR7) was −0.0014. Moreover, in the assay with HLA-DRB1*0802 (DR8w2), the DR8w2 binding information is on record as −0.0009. The DR6w19 binding information with HLA-DRB1*1302 (DR6w19) turned out to be 0.0123.

Consider ILKEPVIIGV, for which the “A*0201 (binding information)” value in the assay with HLA-A*0201 (HIV A02 super motif peptides) is listed as 0.0055.

Regarding ILRQRKTDR, the DR7 binding information in the assay with HLA-DRB1*0701 (DR7) is listed as −0.0014. In addition, the DR8w2 binding information in the assay with HLA-DRB1*0802 (DR8w2) worked out at 0.0270. The compound also yielded a DRw619 binding information in the assay with HLA-DRB1*1302 (DR6w19) (Table XXd, HIV DR 3b motif peptides) of 0.0016.

The values are drawn from US20050271676A1, “Inducing cellular immune responses to human immunodeficiency virus-1 using peptide and nucleic acid compositions” (Epimmune Inc., priority 1993, published 2005).
